In US9284325B2, “Spectinamides as anti-tuberculosis agents” (UNIVERSITY OF TENNESSEE RESEARCH FOUNDATION, priority 2009, dated 2016):
Structures can show the parent of a compound that is named as a salt.

How the values were obtained:
[1] = test system: Vero epithelial cells; conditions: African green monkey
[2] = test system: B. anthracis Sterne 34F2; assay: microbe, parasite or virus in culture; type: cell-based, Bacillus anthracis; conditions: Bacillus anthracis, STERNE34F2, read-out: MIC B. anthracis 34F2
[3] = test system: Strenotrophomonas maltophilia ATCC 13637; assay: MIC determination by microbroth dilution; type: cell-based
[4] = test system: Burkholderia cepacia ATCC 25416; assay: MIC determination by microbroth dilution; type: cell-based; conditions: ATCC25416, read-out: MIC B. cepcia
[5] = test system: Proteus vulgaris ATCC 33420; assay: MIC determination by microbroth dilution; type: cell-based; conditions: ATCC33420
[6] = test system: Klebsiella pneumoniae ATCC 33495; assay: MIC determination by microbroth dilution; type: cell-based; conditions: ATCC33495
[7] = test system: P. aeruginosa PAO1; assay: MIC determination by microbroth dilution; type: cell-based, Pseudomonas aeruginosa; conditions: Pseudomonas aeruginosa
[8] = test system: Acinetobacter baumannii ATCC 19606; assay: MIC determination by microbroth dilution; type: cell-based; conditions: ATCC19606
[9] = in vitro; type: in vitro ADME; conditions: rat, plasma, pH 7.4
Protocol: Protein Binding: Protein binding of the compounds was determined using equilibrium dialysis. Biologically relevant concentrations of test compound were prepared (low and high) in rat plasma. 200 μL of the plasma sample was placed in the central chamber and 350 μL of blank isotonic phosphate buffer, pH 7.4 was added to the peripheral chamber of a dialysis device (MW cutoff 6000-8000 D, RED® device, Pierce Biotechnology Inc, Rockford, Ill., United States of America). The chambers were covered with a seal and incubated at 37° C. for four hours on a shaker set at 100 rpm. At the end of incubation, the volumes of plasma and recipient buffer were measured to identify and account for volume shift, if any. Aliquots of plasma and buffer were used to determine the drug concentration using an LC-MS/MS assay. The free fraction of the drug was calculated as ratio of the concentrations in the buffer and in plasma.
Following intravenous administration of 10 mg/kg in rats, 1329 follows a bi-exponential concentration/time profile with distinct distribution and elimination phases. Plasma protein binding of the compound is approximately 30%. 1329 is widely distributed with a steady state volume of distribution of 4.3 L/kg. It has a mean residence time in the body of approximately 5.3 hours.

[10] = test system: Strep. pyogenes ATCC 700294; assay: MIC determination by microbroth dilution; type: cell-based, Streptococcus pyogenes; conditions: Streptococcus pyogenes, ATCC700294, read-out: MIC S. pyogenes
[11] = test system: E. coli K12 ΔtolC; assay: microbe, parasite or virus in culture; type: cell-based; conditions: Escherichia coli, read-out: MIC E. coli K12 ΔtolC
[12] = test system: E. faecalis ATCC 33186; assay: MIC determination by microbroth dilution; type: cell-based, Enterococcus faecalis; conditions: Enterococcus faecalis, ATCC33186
[13] = in vitro; conditions: African green monkey

CN[C@@H]1[C@H](O)[C@H](NC)C2O[C@]3(O)C(OC2[C@H]1O)O[C@H](C)C[C@H]3NC(=O)Cc1ccccn1 (stereo partly drawn) [Compound 1329, 3′-Dihydro-3′-deoxy-4(R)-(pyridin-2yl)acetylamino spectinomycin Dihydrochloride]
therapeutic index (IC50 divided by the MIC) [1]: 5456
MIC [2]: 50 µg/mL
MIC [3]: 200 µg/mL
MIC [4]: > 200 µg/mL
MIC [5]: > 200 µg/mL
MIC [6]: > 200 µg/mL
MIC [7]: 100 µg/mL
MIC [8]: > 200 µg/mL
fraction unbound at 4 h [9]: ~0.7
MIC [10]: 50 µg/mL
MIC [11]: 50 µg/mL
MIC [12]: 100 µg/mL
IC50 at 72 h [13]: 2180 µg/mL
